Measured values as given in US4410716A, “Dibenzo[a,d]cycloheptene derivatives and process for production thereof” (Toa Eiyo Kagaku Kogyo Co. Ltd., priority 1979, dated 1983).
“Also recorded” adds a separate entry of the source. Like-named read-outs stand apart in the source and are kept apart here.

What was measured:
[1] = system: edema (carrageenin, hind paw); test: Anti-inflammatory activity: carrageenin hind paw edema in rats, oral administration; format: in vivo, male Donryu rats; details: for inhibition in vivo at 25 mg/kg / inhibition in vivo at 100 mg/kg / ED40 / inhibition in vivo at 1 mg/kg / inhibition in vivo at 5 mg/kg / inhibition in vivo at 10 mg/kg: Rattus norvegicus; for inhibition in vivo at 25 mg/kg: 25 mg/kg oral; for inhibition in vivo at 25 mg/kg / inhibition in vivo at 100 mg/kg / inhibition in vivo at 1 mg/kg / inhibition in vivo at 5 mg/kg / inhibition in vivo at 10 mg/kg: read-out: Percent edema inhibition; for inhibition in vivo at 100 mg/kg: 100 mg/kg oral; for ED40: read-out: ED40 value; for anti-inflammatory activity (in words): carrageenin edema, rat
Procedure: (§1) The anti-inflammatory activity, analgesic activity and ulcerogenic activity of the novel dibenzo[a,d]cycloheptene derivatives of this invention were tested by the following methods.
Each of test compounds was orally administered to groups of male Donryu rats weighing 130 to 150 g (8 to 10 rats per group), and one hour later, 0.1 ml of a 1% carrageenin solution was injected subcutaneously into the hind paw of each rat. After injection of carrageenin, the volume of the paw was measured at predetermined periods, and the percent inhibition against a control group was calculated.

gastric wall = test: in vivo; details: for Number of animals with ulcer/number of animals used: 16 hours; for Ulcer index (Mean ± SE): Adami's method
Procedure: as §1
(§2) Sixteen hours later, the rats were sacrificed under ether anesthesia.
(§3) *Calculated by the Adami's method.
(§4) **Calculated by the LitchfieldWilcoxon's method. The parenthesized values
(§5) show 95% confidence limits.

[2] = system: writhing syndromes (acetic acid); test: Analgesic activity: acetic acid writhing in mice; format: in vivo, male ICR mice; details: for ED50: Mus musculus, po, read-out: ED50 value
Procedure: as §1
Using male ICR mice weighing 25 to 30 g (10 mice per group), there was measured the number of writhing syndromes induced when a 1% solution of acetic acid was intraperitoneally injected at a dose of 10 ml/kg. The percent inhibition against a control group was calculated.

in vivo = details: rat, in vivo, po
Procedure: as §1, §2, §3, §4, §5

[3] = dose causing 40% inhibition, dose-response line, 3 hours after carrageenin, oral

With O=C(O)Cc1ccc2c(c1)C(=O)Cc1cc(F)ccc1C2 [Ib, 8-fluoro-10,11-dihydro-11-oxo-5H-dibenzo[a,d]cycloheptene-2-acetic acid] the inhibition in vivo at 25 mg/kg ([1]; 1 hour after carrageenin) was 32.4%, the inhibition in vivo at 25 mg/kg ([1]; 2 hours after carrageenin) was 45.3% and the inhibition in vivo at 25 mg/kg ([1]; 3 hours after carrageenin) was 43.4%. For the same compound, the inhibition in vivo at 25 mg/kg ([1]; 4 hours after carrageenin) was 41.9%, the inhibition in vivo at 100 mg/kg ([1]; 1 hour after carrageenin) was 44.1% and the inhibition in vivo at 100 mg/kg ([1]; 2 hours after carrageenin) was 57.9%. It also gave an inhibition in vivo at 100 mg/kg ([1]; 3 hours after carrageenin) of 52.6%, an inhibition in vivo at 100 mg/kg ([1]; 4 hours after carrageenin) of 53% and an ED40 [1, 3] of 15 mg/kg. For the same compound, the “anti-inflammatory activity (in words)” value ([1]; oral) was “excellent anti-inflammatory activity; also recorded: evidently show anti-inflammatory activity although their activity is weaker than that of indomethacin” and the “ulcerogenic activity (in words)” value (gastric wall; rat, in vivo, po) was “much weaker than that of indomethacin”.

COc1ccc2c(c1)c(CC(=O)O)c(C)n2C(=O)c1ccc(Cl)cc1 [Indomethacin, reference compound] showed an inhibition in vivo at 1 mg/kg ([1]; po, 1 h) of 0%, an inhibition in vivo at 5 mg/kg ([1]; po, 1 h) of 3.9% and an inhibition in vivo at 10 mg/kg ([1]; po, 1 h) of 37.2%. The inhibition in vivo at 1 mg/kg ([1]; po, 2 h) was 20.3%, the inhibition in vivo at 5 mg/kg ([1]; po, 2 h) was 31.1% and the inhibition in vivo at 10 mg/kg ([1]; po, 2 h) was 45.3%. The ED40 ([1]; po, 3 h) was 9.8 mg/kg, the inhibition in vivo at 1 mg/kg ([1]; po, 3 h) was 6.3% and the inhibition in vivo at 5 mg/kg ([1]; po, 3 h) was 25.9%. It also gave an inhibition in vivo at 10 mg/kg ([1]; po, 3 h) of 41.8%, an inhibition in vivo at 1 mg/kg ([1]; po, 4 h) of 10.2% and an inhibition in vivo at 5 mg/kg ([1]; po, 4 h) of 31.7%. The inhibition in vivo at 10 mg/kg ([1]; po, 4 h) was 40.5%, the “Inhibition (writhing)” value ([2]; 1.25 mg/kg) was 27.7% and the “Number of writhing syndromes (Mean ± SE)” value ([2]; 1.25 mg/kg) was 14.6 ± 2.35. The “Inhibition (writhing)” value ([2]; 2.5 mg/kg) was 40.6%, the “Number of writhing syndromes (Mean ± SE)” value ([2]; 2.5 mg/kg) was 12.0 ± 0.92 and the “Inhibition (writhing)” value ([2]; 5.0 mg/kg) was 48.0%. For the same compound, the “Number of writhing syndromes (Mean ± SE)” value ([2]; 5.0 mg/kg) was 10.5 ± 1.40, the “Inhibition (writhing)” value ([2]; 10.0 mg/kg) was 62.4% and the “Number of writhing syndromes (Mean ± SE)” value ([2]; 10.0 mg/kg) was 7.6 ± 1.15. For the same compound, the “Inhibition (writhing)” value ([2]; 20.0 mg/kg) was 70.3%, the “Number of writhing syndromes (Mean ± SE)” value ([2]; 20.0 mg/kg) was 6.0 ± 0.94 and the ED50 [2] was 5 mg/kg. For the same compound, the TD50 at 16 h (in vivo) was 11.7 mg/kg, the selectivity ratio (in vivo) was 1.2 and the “Number of animals with ulcer/number of animals used” value (gastric wall; 3.13 mg/kg oral) was 0/8. For the same compound, the “Ulcer index (Mean ± SE)” value (gastric wall; 3.13 mg/kg oral) was 0, the “Number of animals with ulcer/number of animals used” value (gastric wall; 6.25 mg/kg oral) was 2/8 and the “Ulcer index (Mean ± SE)” value (gastric wall; 6.25 mg/kg oral) was 0.37 ± 0.26. For the same compound, the “Number of animals with ulcer/number of animals used” value (gastric wall; 12.5 mg/kg oral) was 4/8, the “Ulcer index (Mean ± SE)” value (gastric wall; 12.5 mg/kg oral) was 1.38 ± 0.53 and the “Number of animals with ulcer/number of animals used” value (gastric wall; 25.0 mg/kg oral) was 7/8. The “Ulcer index (Mean ± SE)” value (gastric wall; 25.0 mg/kg oral) was 1.88 ± 0.35, the “Number of animals with ulcer/number of animals used” value (gastric wall; 50.0 mg/kg oral) was 8/8 and the “Ulcer index (Mean ± SE)” value (gastric wall; 50.0 mg/kg oral) was 3.12 ± 0.12.

With CC(C(=O)O)c1ccc2c(c1)C(=O)Cc1ccccc1C2 (stereo not drawn) [compound Ii, 2-(10,11-dihydro-11-oxo-5H-dibenzo[a,d]cyclohepten-2-yl)propionic acid] the inhibition in vivo at 1 mg/kg ([1]; 1 mg/kg oral, 1 hour after carrageenin) was 34.4%, the inhibition in vivo at 1 mg/kg ([1]; 1 mg/kg oral, 2 hours after carrageenin) was 30.6% and the inhibition in vivo at 1 mg/kg ([1]; 1 mg/kg oral, 3 hours after carrageenin) was 32.4%. It also gave an inhibition in vivo at 1 mg/kg ([1]; 1 mg/kg oral, 4 hours after carrageenin) of 32.4%, an inhibition in vivo at 5 mg/kg ([1]; 5 mg/kg oral, 1 hour after carrageenin) of 35.8% and an inhibition in vivo at 5 mg/kg ([1]; 5 mg/kg oral, 2 hours after carrageenin) of 54%. For the same compound, the inhibition in vivo at 5 mg/kg ([1]; 5 mg/kg oral, 3 hours after carrageenin) was 51.7%, the inhibition in vivo at 5 mg/kg ([1]; 5 mg/kg oral, 4 hours after carrageenin) was 50.9% and the inhibition in vivo at 10 mg/kg ([1]; 10 mg/kg oral, 1 hour after carrageenin) was 50%. For the same compound, the inhibition in vivo at 10 mg/kg ([1]; 10 mg/kg oral, 2 hours after carrageenin) was 55%, the inhibition in vivo at 10 mg/kg ([1]; 10 mg/kg oral, 3 hours after carrageenin) was 54.6% and the inhibition in vivo at 10 mg/kg ([1]; 10 mg/kg oral, 4 hours after carrageenin) was 54.6%. For the same compound, the ED40 [1, 3] was 1.9 mg/kg, the “anti-inflammatory activity (in words)” value ([1]; oral) was “excellent anti-inflammatory activity; also recorded: stronger than that of indomethacin; also recorded: very potent anti-inflammatory activity” and the “Inhibition (writhing)” value ([2]; 10.0 mg/kg) was 14.0%. The “Number of writhing syndromes (Mean ± SE)” value ([2]; 10.0 mg/kg) was 19.7 ± 1.77, the “Inhibition (writhing)” value ([2]; 20.0 mg/kg) was 33.6% and the “Number of writhing syndromes (Mean ± SE)” value ([2]; 20.0 mg/kg) was 15.2 ± 1.28. The “Inhibition (writhing)” value ([2]; 40.0 mg/kg) was 45.4%, the “Number of writhing syndromes (Mean ± SE)” value ([2]; 40.0 mg/kg) was 12.5 ± 1.65 and the “Inhibition (writhing)” value ([2]; 80.0 mg/kg) was 57.6%. The “Number of writhing syndromes (Mean ± SE)” value ([2]; 80.0 mg/kg) was 9.7 ± 1.93, the ED50 ([2]; dose causing 50% inhibition of writhing, dose-response line) was 52 mg/kg and the “ED50 value relative to that of indomethacin” value ([2]; writhing, mouse) was “ten times”. The “analgesic activity (in words)” value ([2]; writhing, mouse) was “weak analgesic activity”, the “analgesic activity relative to indomethacin” value ([2]; writhing, mouse) was “one-tenth of that of indomethacin” and the TD50 at 16 h (in vivo) was 15 mg/kg. It also gave a selectivity ratio (in vivo) of 7.9.
